Results: ChEMBL document CHEMBL5223152, “Recent advances toward the development of Hsp90 C-terminal inhibitors” (Bioorg Med Chem Lett, 2023)
pEC50, pIC50, pKd: −log10 of the molar value. Values belong to the molecule of their own block, whether it stands above or below them.

Experiments:
HCT-116 = test: Antiproliferative activity against human HCT-116 cells assessed as reduction in cell viability incubated for 72 hrs by MTT assay; format: functional, cell-based; conditions: HCT-116, 72 h
SK-BR-3 [1] = test: Antiproliferative activity against human SK-BR-3 cells assessed as inhibition of cell proliferation; format: functional, cell-based
UMSCC22B = test: Antiproliferative activity against human UMSCC22B cells assessed as inhibition of orosphere formation incubated for 10 to 14 days by light microscopic analysis; format: functional, cell-based
NCI-H1299 [2] = test: Antiproliferative activity against human NCI-H1299 cells assessed as inhibition of cell growth; format: functional, cell-based
Jurkat = test: Antiproliferative activity against human jurkat cells assessed as reduction in cell viability incubated for 48 hrs by MTT assay; format: functional, cell-based
[3] = target: T1, Heat shock protein HSP 90-alpha (Homo sapiens, UniProt P07900); test: Binding affinity to human recombinant HSP90alpha C-terminal domain (563 to 732 residues) expressed in Escherichia coli BL21(DE3) cells assessed as dissociation constant incubated for 15 mins by microscale thermophoresis analysis
K562 = test: Antiproliferative activity against BCR-ABL1 positive human K562 cells assessed as inhibition of cell growth incubated for 72 hrs by ATP-based celltiter Glo assay; format: functional; conditions: K562, 72 h
MCF7 [4] = test: Antiproliferative activity against human MCF7 cells assessed as inhibition of cell proliferation by MTS assay; format: functional, cell-based
SK-N-MC = test: Antiproliferative activity against human SK-N-MC cells assessed as inhibition of cell proliferation by MTS assay; format: functional, cell-based
NCI-H1299 [5] = test: Antiproliferative activity against human NCI-H1299 cells assessed as inhibition of cell growth incubated for 3 days by MTT assay; format: functional, cell-based; conditions: NCI-H1299, 72 h
Heat shock protein HSP90 = Heat shock protein HSP90 (Homo sapiens, UniProt P07900+P08238); test: Binding affinity to NT-647 labelled recombinant HSP90 (unknown origin) C-terminal domain assessed as dissociation constant by microscale thermophoresis analysis; format: protein assay
[6] = target: T1, Heat shock protein HSP 90-alpha; test: Binding affinity to recombinant human HSP90alpha assessed as dissociation constant measured for 300 secs by SPR analysis
NCI-H1299 [7] = test: Antiproliferative activity against human NCI-H1299 cells assessed as reduction in cell viability incubated for 5 days by MTT assay; format: functional, cell-based; conditions: NCI-H1299, 120 h
NCI-H1299 [8] = test: Antiproliferative activity against human NCI-H1299 cells assessed as reduction in cell viability incubated for 2 to 3 days by MTT assay; format: functional, cell-based
[9] = Antiproliferative activity against human LNCap-LN3 cells assessed as inhibition of cell growth incubated for 24 hrs by CellTiter-glo luminescence assay; format: functional, cell-based; conditions: LNCaP-LN3, 24 h
[10] = target: T1, Heat shock protein HSP 90-alpha; test: Binding affinity to recombinant HSP90alpha (unknown origin) assessed as dissociation constant incubated for 30 mins by intrinsic fluorescence based spectroscopic analysis
[11] = target: Heat shock protein HSP 90-beta (Homo sapiens, UniProt P08238); test: Binding affinity to recombinant HSP90beta (unknown origin) assessed as dissociation constant incubated for 30 mins by intrinsic fluorescence based spectroscopic analysis
Sequence of Heat shock protein HSP 90-beta (P08238 whole entry): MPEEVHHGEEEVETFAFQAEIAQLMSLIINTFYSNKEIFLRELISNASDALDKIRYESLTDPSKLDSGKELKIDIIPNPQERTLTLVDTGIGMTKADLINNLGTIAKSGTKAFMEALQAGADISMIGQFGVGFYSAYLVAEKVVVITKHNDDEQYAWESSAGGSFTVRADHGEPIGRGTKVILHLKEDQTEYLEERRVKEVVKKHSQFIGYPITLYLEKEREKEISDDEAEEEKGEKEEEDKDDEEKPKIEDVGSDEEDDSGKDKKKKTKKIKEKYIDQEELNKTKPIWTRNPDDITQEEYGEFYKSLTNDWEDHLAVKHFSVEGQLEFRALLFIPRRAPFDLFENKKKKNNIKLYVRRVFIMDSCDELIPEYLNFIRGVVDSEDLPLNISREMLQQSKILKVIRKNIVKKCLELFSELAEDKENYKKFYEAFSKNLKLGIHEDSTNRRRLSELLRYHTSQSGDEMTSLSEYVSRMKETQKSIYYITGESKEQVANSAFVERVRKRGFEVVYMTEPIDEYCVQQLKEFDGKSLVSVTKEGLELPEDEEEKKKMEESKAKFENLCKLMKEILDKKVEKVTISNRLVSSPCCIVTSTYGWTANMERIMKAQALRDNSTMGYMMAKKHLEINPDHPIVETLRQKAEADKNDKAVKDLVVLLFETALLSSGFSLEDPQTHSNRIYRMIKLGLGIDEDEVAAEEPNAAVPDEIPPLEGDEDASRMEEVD

UACC-62 = test: Antiproliferative activity against human UACC-62 cells assessed as inhibition of cell growth; format: functional
MDA-MB-231 = test: Antiproliferative activity against human MDA-MB-231 cells assessed as inhibition of cell growth incubated for 48 to 72 hrs by MTS assay; format: functional, cell-based
SK-BR-3 [12] = test: Antiproliferative activity against human SK-BR-3 cells assessed as inhibition of cell proliferation incubated for 72 hrs by MTS proliferation assay; format: functional, cell-based; conditions: SK-BR-3, 72 h
MCF7 [13] = test: Antiproliferative activity against human MCF7 cells assessed as inhibition of cell proliferation incubated for 72 hrs by MTS assay; format: functional, cell-based; conditions: MCF7, 72 h
[14] = target: T1, Heat shock protein HSP 90-alpha; test: Inhibition of recombinant GST-tagged HSP90alpha NTD (9 to 236 residues) (unknown origin) ATPase activity expressed in Escherichia coli BL21 (DE3)

Structure (SMILES): COc1ccc2c(c1OC)O[C@]13C(=O)N4O[C@H]5[C@H](O)C=C[C@@H](Cl)[C@@]5(O)C[C@@]4(SS[C@H]21)C(=O)N3C
pIC50 (HCT-116): 6.48

Structure (SMILES): COc1cccc(-c2cc(C(=O)Nc3ccc(/C=C/c4ccc(OC5CCN(C)CC5)cc4)cc3)ccc2OC)c1
pIC50 (SK-BR-3 [1]): 6.17

Structure (SMILES): COc1cccc(-c2cccc(NC(=O)Nc3cc4ccc(OC5CCN(C)CC5)c(C)c4oc3=O)c2)c1
pIC50 (UMSCC22B): 6.00

Structure (SMILES): Cc1c(OC2CCN(C)CC2)ccc2cc(NC(=S)Nc3cccc(Cl)c3)c(=O)oc12
pIC50 (UMSCC22B): 4.70

Structure (SMILES): CCOC(=O)C1=C(C)N(c2ccccc2)C(=O)NC1c1cc(O)ccc1Br (stereo not given)
pIC50 (Jurkat): 4.82

Structure (SMILES): CCC(C)n1c(C(=O)NC2CN=C(C(=O)NC)N(CC(C)C)C2=O)ncc(NC(=O)c2ncc(NC(=O)c3ccccc3)c(=O)n2Cc2ccc(OC)cc2)c1=O (stereo not given)
pKd [3]: 5.47
pIC50 (K562): 5.89

Structure (SMILES): Nc1c(C(=O)c2ccc(-c3ccc(Br)cc3)cc2)sc2nc3c(c(-c4ccccc4)c12)CNCC3
pIC50 (MCF7 [4]): 5.85
pIC50 (SK-N-MC): 5.55

Structure (SMILES): CC[C@@H](C)[C@@H](ONC(=O)[C@H](ONC(=O)[C@@H](Cc1ccccc1)ONC(=O)[C@@H](Cc1ccccc1)ONC(=O)OCc1ccccc1)[C@H](C)CC)C(=O)NO[C@H](CC(C)C)C(=O)NO[C@H](CC(C)C)C(N)=O
Kd (Heat shock protein HSP90): 27400 nM

Structure (SMILES): Cc1ccc(Cn2cc(C(=O)Nc3ccc(/C=C/c4ccc(OC5CCN(C)CC5)cc4)cc3)nn2)cc1
pIC50 (SK-BR-3 [1]): 7.00

Structure (SMILES): COc1ccc(NCC(=O)Nc2ncc(Cc3ccc(Cl)c(Cl)c3)s2)cc1
pKd [6]: 7.68

Structure (SMILES): Cc1c(OCCC2CCCCN2)ccc2cc(NC(=O)Nc3ccc(Cl)cc3)c(=O)oc12 (stereo not given)
pIC50 [9]: 5.70
pKd [10]: 3.72
pKd [11]: 3.14

Structure (SMILES): COc1cccc(-c2cc(NC(=O)Nc3cc4ccc(OC5CCN(C)CC5)c(C)c4oc3=O)ccc2C)c1
IC50 (UACC-62): 360 nM

Structure (SMILES): Cc1ccc(Cl)c(OCC2(O)CCN(Cc3ccc(OCCN4CCOCC4)cc3)CC2)c1
pIC50 (MCF7 [13]): 4.50

Structure (SMILES): CC(C)(C)CC(C)(C)NCC(O)COc1ccc(C(C)(C)c2ccc(OCC(O)CNC(C)(C)CC(C)(C)C)cc2)cc1 (stereo not given)
pIC50 [14]: 3.92

The remaining lines, values ahead:

pIC50 (NCI-H1299 [2]; Homo sapiens, NCI-H1299, read-out: IC50): 6.00
Structure (SMILES): COc1cc2nccc(C(OC(=O)C3CC3)c3ccc4c(c3OC)C=CC(C)(C)O4)c2cc1OC (stereo not given)

IC50 (NCI-H1299 [2]): 140 nM
Structure (SMILES): COc1ccc(CC(=O)c2ccc3c(c2OC)C=CC(C)(C)O3)cc1OC

pIC50 (NCI-H1299 [5]): 6.00
Structure (SMILES): COc1cc2nccc(C(OC(C)=O)c3ccc4c(c3OC)C=CC(C)(C)O4)c2cc1OC (stereo not given)

pEC50 (NCI-H1299 [7]): 6.64
Structure (SMILES): COc1cc(NC(=O)c2ccc3c(c2OC)C=CC(C)(C)O3)ccc1OCCc1cccnc1

pIC50 (NCI-H1299 [8]): 6.64
Structure (SMILES): COc1cc(NC(=O)c2ccc3c(c2OC)C=CC(C)(C)O3)ccc1OCCc1ccncc1

pIC50 (MDA-MB-231): 5.30
Structure (SMILES): COc1cc2nccc(C(OC(=O)C3CC3)c3ccc4c(c3)C=CC(C)(C)O4)c2cc1OC (stereo not given)

pIC50 (SK-BR-3 [12]): 5.70
Structure (SMILES): COc1cc(NC(=O)c2ccc3c(c2OC)C=CC(C)(C)O3)ccc1OCCC1CCCCN1 (stereo not given)
